The values that follow come from patent US10329300B2, “Pyrazolo[3,4-d]pyrimidine compound or salt thereof” (TAIHO PHARMACEUTICAL CO., LTD., priority 2015, dated 2019).

Holding throughout (type): cell-based
In experiment [1] the test system is EGFR-overexpressing highly activated human epithelioid cancer cell line A431 cells. In words: Cytostatic activity against EGFR-expressing cell line A431 (CellTiter-Glo). The following applies: 3-day culture, read-out: A431 cell growth inhibitory activity IC50 value. An excerpt: Test Example 2 Measurement Test (In Vitro) of Cytostatic Activity Against HER2-Expressing Cell Line (NCI-N87) and EGFR-Expressing Cell Line (A431) and Comparison of Selectivity Thereof
(§1) HER2-overexpressing human stomach cancer cell line NCI-N87 cells were suspended in RPMI1640 medium (manufactured by Life Technologies Corp.) containing 10% fetal bovine serum. Meanwhile, EGFR-overexpressing highly activated human epithelioid cancer cell line A431 cells were suspended in DMEM, high glucose medium (manufactured by Life Technologies Corp.) containing 10% fetal bovine serum. Subsequently, each cell suspension was inoculated to each well of a 384-well flat-bottom microplate and cultured at 37° C. for 1 day in an incubator containing 5% carbon dioxide. The compound of the present invention or Comparative Example compound 1 was dissolved in DMSO, and the test compound was diluted into a concentration of 500 times the final concentration using DMSO. The solution of the test compound in DMSO was diluted with the medium used in the suspension of each cell line, and this solution was added at a final concentration of DMSO of 0.2% to each well of the cell culture plate, followed by further culture at 37° C. for 3 days in an incubator containing 5% carbon dioxide.
Rate of growth inhibition (%)=(C−T)/(C)×100 T: Luminescence intensity of a well supplemented with the test compound C: Luminescence intensity of a well not supplemented with the test compound

The subject of experiment [2] is HER2-overexpressing human stomach cancer cell line NCI-N87 cells. Nature of the experiment: Cytostatic activity against HER2-expressing cell line NCI-N87 (CellTiter-Glo).
Description: as §1, with “The compound of the present invention or Comparative Example compound 1 was dissolved in DMSO, and the test compound was diluted into a concentration of 500 times the final concentration using DMSO.” left out

Experiment [3] deals with HER2-overexpressing human breast cancer cell line SK-BR-3 cells. In words: Cytostatic activity against HER2-expressing cell line SK-BR-3 (CellTiter-Glo). The following applies: 3-day culture, read-out: SK-BR-3 cell growth inhibitory activity IC50 value. As to the method:
HER2-overexpressing human breast cancer cell line SK-BR-3 cells were suspended in McCoy's 5a medium (manufactured by Life Technologies Corp.) containing 10% fetal bovine serum. The cell suspension was inoculated to each well of a 384-well flat-bottom microplate and cultured at 37° C. for 1 day in an incubator containing 5% carbon dioxide. The compound of the present invention was dissolved in DMSO, and the test compound was diluted into 500 times as high concentration as the final concentration using DMSO. The solution of the test compound in DMSO was diluted with the medium used in the suspension of each cell line, and this solution was added at a final concentration of DMSO of 0.2% to each well of the cell culture plate, followed by further culture at 37° C. for 3 days in an incubator containing 5% carbon dioxide.

Setting [4] is: Homo sapiens, 72 h, 3-day culture, NCI-N87, read-out: NCI-N87 cell growth inhibitory activity IC50 value.

Read-outs that look alike come from different tables or passages of the source.

Turning to `C=CC(=O)N1CCC[C@@H](n2nc(C(=O)Nc3ccc(CC(=O)N(C)C)c(Cl)c3)c3c(N)ncnc32)C1` [Example 8, (R)-1-(1-acryloylpiperidin-3-yl)-4-amino-N-(3-chloro-4-(2-(dimethylamino)-2-oxoethyl)phenyl)-1H-pyrazolo[3,4-d]pyrimidine-3-carboxamide], in experiment [1] (Homo sapiens, A-431, 72 h), the IC50 stood at 956 nM.
Turning to `C=CC(=O)N1CCC[C@@H](n2nc(C(=O)Nc3ccc(OC(=O)N(C)C)cc3OC)c3c(N)ncnc32)C1` [Example 36, (R)-4-(1-(1-acryloylpiperidin-3-yl)-4-amino-1H-pyrazolo[3,4-d]pyrimidine-3-carboxamido)-3-methoxyphenyl dimethylcarbamate], the IC50 in experiment [2] (Homo sapiens, NCI-N87, 72 h, read-out: NCI-N87 cell growth inhibitory activity IC50 value (nM)) was 8 nM; in experiment [1] (Homo sapiens, A-431, 72 h) it was 2610 nM.
For the compound “(R,E)-4-(4-amino-1-(1-(4-dimethylamino)but-2-enoyl)piperidin-3-yl)-1H-pyrazolo[3,4-d]pyrimidine-3-carboxamido)naphthalen-1-yl dimethyl carbamate [Example 66]”, the IC50 in experiment [1] was determined as 6040 nM.
“(R)-1-(1-acryloylpiperidin-3-yl)-4-amino-N-(4-(2-methoxy(methyl)amino-2-oxoethyl)-2-methylphenyl)-1H-pyrazolo[3,4-d]pyrimidine-3-carboxamide [Example 72]”: the IC50 in experiment [2] (3-day culture, NCI-N87, read-out: NCI-N87 cell growth inhibitory activity IC50 value) amounted to 5 nM; in experiment [1], 1170 nM; in experiment [3], 16 nM.
For `C=CC(=O)N1CCC[C@@H](n2nc(C(=O)Nc3nc4cc(F)ccc4o3)c3c(N)ncnc32)C1` [Comparative Example compound 1, (R)-1-(1-acryloylpiperidin-3-yl)-4-amino-N-(5-fluorobenzo[d]oxazol-2-yl)-1H-pyrazolo[3,4-d]pyrimidine-3-carboxamide, reference compound], the “cytostatic effect in evaluation using HER2-overexpressing cell lines” value in experiment [2] (HER2-overexpressing cell lines, qualitative) is “very low cytostatic effect”. The half-inhibitory concentration (IC50) in experiment [2] (setting [4]) stood at 2380 nM; in experiment [3] (Homo sapiens, 72 h) it was 1130 nM.
As to `C=CC(=O)N1CCC[C@@H](n2nc(C(=O)Nc3cc(C)c(CC(=O)N(C)C)cc3C)c3c(N)ncnc32)C1` [Example 39, (R)-1-(1-acryloylpiperidin-3-yl)-4-amino-N-(4-(2-(dimethylamino)-2-oxoethyl)-2,5-dimethylphenyl)-1H-pyrazolo[3,4-d]pyrimidine-3-carboxamide], the half-maximal inhibitory concentration (IC50) in experiment [2] (setting [4]) came to 12 nM; in experiment [1] (Homo sapiens, A-431, 72 h), 1800 nM; in experiment [3] (Homo sapiens, 72 h) it was 24 nM.
For `C=CC(=O)N1CC[C@@H](n2nc(C(=O)Nc3ccc(CC(=O)N(C)C)c(F)c3C)c3c(N)ncnc32)C1` [Example 56, (R)-1-(1-acryloylpyrrolidin-3-yl)-4-amino-N-(4-(2-(dimethylamino)-2-oxoethyl)-3-fluoro-2-methylphenyl)-1H-pyrazolo[3,4-d]pyrimidine-3-carboxamide], the IC50 in experiment [1] (Homo sapiens, A-431, 72 h) is 2510 nM.
For the compound `C=CC(=O)N1CCC[C@@H](n2nc(C(=O)Nc3ccc(CC(=O)N(C)C)c4c3OCO4)c3c(N)ncnc32)C1` [Example 53, (R)-1-(1-acryloylpiperidin-3-yl)-4-amino-N-(7-(2-(dimethylamino)-2-oxoethyl)benzo[d][1,3]dioxol-4-yl)-1H-pyrazolo[3,4-d]pyrimidine-3-carboxamide], the IC50 is 11 nM in experiment [2] (setting [4]) and 1670 nM in experiment [1] (Homo sapiens, A-431, 72 h).
